According to patent US7915237B2, “Production of pure stereoisomers of tricyclo[5.2.1.02.6]-dec-9-yl-xanthogenate and medicaments therefrom” (Lumavita AG, priority 2001, dated 2011):

What was measured:
Herpes simplex virus 1 [1] = experiment: Inhibition of Herpes proliferation by measuring the cytopathogenic effect; format: cell-based, Herpes simplex virus 1 in monkey kidney cells (Rita strain); conditions: 50 PFU HSV-1, pH 6.8, microscopy after 6 days
Description: The inhibition of the proliferation of Herpes by exo/exo-tricyclo[5.2.1.0^2.6]dec-9-yl-xanthogenate was determined by measuring the cytopathogenic effect. For this purpose, monkey kidneys cells (Rita strain) were seeded on Linbro plates. After 24 hours, 50 plaque-forming units of Herpes simplex virus 1 were added to each culture. After allowing for adsorption for one hour, fresh culture medium adjusted to pH 6.8 was added. Four cultures each were treated either with the pure exo/exo isomer or a mixture of isomers containing 83% of the exo/exo isomer using the following concentrations: 0, 5, 10, 15 or 20 μg/ml. The cultures were analyzed by microscopy after 6 days. Untreated cultures were completely lysed as a result of virus proliferation (cytopathogenic effect).

Herpes simplex virus 1 [2] = experiment: Inhibition of Herpes proliferation by measuring viral proliferation (plaque assay of supernatants); format: cell-based, Herpes simplex virus 1 in monkey kidney cells (Rita strain)
Description: The inhibition of the proliferation of Herpes by exo/exotricyclo[5.2.1.0^2.6]dec-9-yl-xanthogenate was determined by measuring viral proliferation. For this purpose, monkey kidneys cells (Rita strain) were seeded on Linbro plates. After 24 hours, 100 plaque-forming units of Herpes simplex virus 1 were added to each culture. After allowing for adsorption for one hour, fresh culture medium adjusted to pH 6.8 was added. Four cultures each were treated either with the pure exo/exo isomer or a mixture of isomers containing 83% of the exo/exo isomer using the following concentrations: 0, 5, 10 or 15 μg/ml. The virus concentrations in the supernatants of the cultures were determined after four days by means of plaque assays. The curves were used to determine the concentration at which viral proliferation was inhibited by 50% (IC50). An IC50 of 0.6 μg/ml was found for the exo/exo isomer. […] This means that the pure exo/exo isomer effected a 50% reduction of viral proliferation at a more than 10-fold lower concentration as compared to the mixture of isomers.

`S=C(S)OC1CC2CC1C1CCCC21` (single isomer, unassigned) [exo/exo isomer, exo/exo-tricyclo[5.2.1.0^2.6]dec-9-yl-xanthogenate] was tested, and the “cytopathogenic effect in treated cultures” value (Herpes simplex virus 1 [1]; 5, 10, 15 or 20 μg/ml) was “no evidence of a cytopathogenic effect”, the “concentration at which proliferation of the virus was completely suppressed (no cytopathogenic effect)” value (Herpes simplex virus 1 [1]; tested 5-20 μg/ml) was ≤ 5 µg/mL and the “concentration at which viral proliferation was inhibited by 50% (IC50)” value (Herpes simplex virus 1 [2]; 100 PFU HSV-1, pH 6.8, virus in supernatant after four days, from dose-response curve) was 0.6 µg/mL. The “fold lower concentration for 50% reduction of viral proliferation as compared to the mixture of isomers” value (Herpes simplex virus 1 [2]; IC50 ratio versus mixture containing 83% exo/exo isomer) was “more than 10 fold” and the “fold stronger antiviral effect than the mixture of isomers” value (Herpes simplex virus 1 [2]; summary statement, versus mixture of 83% exo/exo and 17% other isomers) was 4-10 fold.
